Experiments:
AKT1 E17K [1] = target: T1, AKT1 E17K (Homo sapiens (Human), UniProt P31749, E17K); assay: Live cell target engagement (NanoBRET) in HEK293 cells; type: cell-based
Target sequence in this assay (P31749 whole entry E17K): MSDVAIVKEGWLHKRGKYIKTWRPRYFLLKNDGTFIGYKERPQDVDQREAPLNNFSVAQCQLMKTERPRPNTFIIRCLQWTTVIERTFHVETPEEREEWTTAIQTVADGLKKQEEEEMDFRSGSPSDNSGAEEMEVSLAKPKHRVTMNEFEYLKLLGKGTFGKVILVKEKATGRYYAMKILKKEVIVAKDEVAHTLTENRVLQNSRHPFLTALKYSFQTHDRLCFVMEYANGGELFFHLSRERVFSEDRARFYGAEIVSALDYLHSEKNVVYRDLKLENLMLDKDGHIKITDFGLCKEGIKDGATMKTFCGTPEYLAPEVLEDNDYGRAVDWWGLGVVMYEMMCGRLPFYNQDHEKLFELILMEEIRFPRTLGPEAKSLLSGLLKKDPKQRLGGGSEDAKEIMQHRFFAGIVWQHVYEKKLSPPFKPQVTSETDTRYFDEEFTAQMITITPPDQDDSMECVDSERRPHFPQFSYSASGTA

AKT1 WT [2] = target: T2, AKT1 WT (Homo sapiens (Human), UniProt P31749); assay: as above; type: cell-based
Target sequence in this assay (P31749 whole entry): as the sequence (P31749 whole entry E17K) above, with K17E counted along it

AKT2 = AKT2 (Homo sapiens (Human), UniProt P31751); assay: as above; type: cell-based
AKT1 E17K [3] = target: T1, AKT1 E17K; assay: Dissociation rate of Compound A and Compound B by competition with ARQ-092, LCMS; type: binding; conditions: for AKT1 E17K t1/2: compound 5 μM, 15 minutes, then ARQ-092 50 μM, 25 mM HEPES pH 8.0, 150 mM NaCl; for Off-rate Selectivity E17K/WT: ratio of t1/2
Protocol: (§1) Determination of compound dissociation rate by intact protein mass spectrometry:Recombinant AKT1 containing appropriate mutations (1 μM) was treated with inhibitor (5 μM) at room temperature. After 15 minutes, ARQ-092 (50 μM final concentration) was added to prevent aldehyde-containing compound rebinding after initial dissociation. At various timepoints, aliquots were removed and quenched with 5 mM NaBH4 to capture the reversible imine through reductive amination, then analyzed by LCMS. Deconvoluted monoisotopic intensities of unmodified vs. compound-modified mass peaks were compared.
(§2) AKT1(E17K or WT) (1 μM) was incubated with Compound A or Compound B (5 μM) for 15 minutes in 25 mM HEPES pH 8.0, 150 mM NaCl buffer. Then ARQ-092 (50 μM) was added and aliquots quenched with 5 mM NaBH4 at a series of timepoints and the percentage labelling determined by LCMS. FIG. 32A and FIG. 32B provide competition data (dissociation rates) for Compound A and Compound B in both wild-type AKT1 and AKT1 E17K against ARQ-092. Table 8 provides half-life data based on the dissociation studies described herein.
Target sequence in this assay (P31749 2-480 E17K): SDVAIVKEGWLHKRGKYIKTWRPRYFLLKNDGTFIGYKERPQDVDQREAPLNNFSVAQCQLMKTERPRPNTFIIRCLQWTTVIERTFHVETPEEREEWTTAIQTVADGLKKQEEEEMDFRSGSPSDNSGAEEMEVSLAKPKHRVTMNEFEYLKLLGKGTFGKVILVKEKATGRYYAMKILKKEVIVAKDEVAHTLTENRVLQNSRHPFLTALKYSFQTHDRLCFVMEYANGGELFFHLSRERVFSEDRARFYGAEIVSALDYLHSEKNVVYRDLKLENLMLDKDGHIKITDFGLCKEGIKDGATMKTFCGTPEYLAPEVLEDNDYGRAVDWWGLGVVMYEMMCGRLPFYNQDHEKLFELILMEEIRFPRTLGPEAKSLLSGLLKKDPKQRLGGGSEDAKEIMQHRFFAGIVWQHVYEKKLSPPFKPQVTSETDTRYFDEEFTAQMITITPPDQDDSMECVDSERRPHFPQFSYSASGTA

AKT1 WT [4] = target: T2, AKT1 WT; assay: as above; type: binding; conditions: compound 5 μM, 15 minutes, then ARQ-092 50 μM; 25 mM HEPES pH 8.0, 150 mM NaCl
Protocol: as §1, §2
Target sequence in this assay (P31749 2-480): as the sequence (P31749 2-480 E17K) above, with K16E counted along it

BEAS2B-AKT1(E17K) = BEAS2B-AKT1(E17K) (Homo sapiens (Human), UniProt P31749, E17K); assay: Washout, target engagement durability in intact cells (in-gel fluorescence); type: cell-based
Protocol: (§3) FIG. 31 illustrates in-gel fluorescence and western blot wash out experiments of BEAS2B-AKT1(WT) and BEAS2B-AKT1(E17K) following incubation of the cells with Compound B for 0.5 hr. Wash out periods were 0 hr, 0.5 hr, 1 hr, 1.5 hr, 3 hrs, and 21 hrs.
(§4) Measurement of target engagement durability in intact cells: Beas-2b cells stably over-expressing either Flag-AKT1 WT or Flag-AKT1 E17K were treated with compound for 30 minutes at 37 C. The media was then aspirated and replaced with fresh media and the cells were incubated at 37° C. At various timepoints, cells were washed with PBS and then lysed in buffer containing 5 mM NaBH4. After 1 h, the lysate was precipitated in MeOH/CHCl3, resuspended in 1% SDS in PBS and then subjected to copper catalyzed click chemistry with TAMRA-biotin-azide. The samples were precipitated again and then resuspended in 1.5× SDS loading buffer, separated by SDS-PAGE and analyzed by in-gel fluorescence and western blot.

BEAS2B-AKT1(WT) = BEAS2B-AKT1(WT) (Homo sapiens (Human), UniProt P31749); assay: as above; type: cell-based; conditions: incubation 0.5 hr; 21 hours of dilution compared to 1 hour
Protocol: as §3, §4

AKT1 E17K mutant protein = AKT1 E17K mutant protein (Homo sapiens (Human), UniProt P31749, E17K); assay: Intact mass spectrometry, covalent complex formation and ARQ-092 competition; type: binding; conditions: protein 1 μM, compound 1.5 μM, 2 hrs at 37° C., NaBH4 reduction; for covalent complex formation with AKT1 E17K mutant protein: absence of competitor; for covalent complex formation with AKT1 E17K mutant protein in presence of competitor: with ARQ092 (50 μM)
Outline: (§5)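 AKT1 WT or E17K (1 μM) was incubated with compound (1.5 μM) for 2 hrs at 37° C., with or without ARQ092 (50 μM) competitor as specificity control. Imines were reduced with 5 mM NaBH4 for 5 min, quenched in acetonitrile+1% TFA, and covalent adducts read by intact-mass LCMS.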

AKT1 WT [5] = target: T2, AKT1 WT; assay: as above; type: binding; conditions: protein 1 μM, compound 1.5 μM, 2 hrs at 37° C., NaBH4 reduction; for covalent complex formation with AKT1 WT protein: absence of competitor; for covalent complex formation with AKT1 WT protein in presence of competitor: with ARQ092 (50 μM)
Outline: as §5
Target sequence in this assay (P31749 2-480): as the sequence (P31749 2-480 E17K) above, with K16E counted along it

AKT1 E17K [6] = target: T1, AKT1 E17K; assay: Dissociation rate by intact protein LCMS after ARQ092 chase; type: binding; conditions: for AKT1 E17K t1/2: compound 1.5 μM, 2 hours at 37° C., then ARQ092 50 μM; for Off-rate Selectivity E17K/WT: ratio of t1/2
Protocol: (§6) AKT1 WT or AKT1 E17K (1 μM) were treated with a compound of Table 1 (1.5 μM) for 2 hours at 37° C., then ARQ092 (50 μM final concentration) was added to prevent aldehyde-containing compound rebinding after initial dissociation. At various timepoints, aliquots were removed and quenched with 5 mM NaBH4 for 5 min to capture the reversible imine through reductive amination. Reduction reactions were quenched by diluting the sample in equal volume acetonitrile+1% TFA, then analyzed by LCMS. Deconvoluted monoisotopic intensities of unmodified vs. compound-modified mass peaks were compared.
Target sequence in this assay (P31749 2-480 E17K): as the sequence (P31749 2-480 E17K) above

AKT1 WT [7] = target: T2, AKT1 WT; assay: as above; type: binding; conditions: compound 1.5 μM, 2 hours at 37° C., then ARQ092 50 μM
Protocol: as §6
Target sequence in this assay (P31749 2-480): as the sequence (P31749 2-480 E17K) above, with K16E counted along it

Chain of AKT2 (P31751 whole entry): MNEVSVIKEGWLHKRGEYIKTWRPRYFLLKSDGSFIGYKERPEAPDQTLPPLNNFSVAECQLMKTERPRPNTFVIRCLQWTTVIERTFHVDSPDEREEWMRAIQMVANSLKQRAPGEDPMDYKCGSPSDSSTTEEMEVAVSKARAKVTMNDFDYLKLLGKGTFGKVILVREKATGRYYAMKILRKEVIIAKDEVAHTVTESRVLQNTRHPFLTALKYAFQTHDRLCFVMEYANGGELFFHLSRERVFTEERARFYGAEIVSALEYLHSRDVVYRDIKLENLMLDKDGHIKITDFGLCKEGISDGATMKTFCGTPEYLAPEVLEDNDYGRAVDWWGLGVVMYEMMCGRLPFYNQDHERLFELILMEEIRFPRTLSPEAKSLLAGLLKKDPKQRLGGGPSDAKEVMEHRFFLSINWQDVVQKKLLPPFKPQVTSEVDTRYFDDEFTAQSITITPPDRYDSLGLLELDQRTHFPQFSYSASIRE
Chain of AKT1 E17K mutant protein (P31749 2-480 E17K): as the sequence (P31749 2-480 E17K) above
Chain of BEAS2B-AKT1(E17K) (P31749 whole entry E17K): as the sequence (P31749 whole entry E17K) above
Chain of BEAS2B-AKT1(WT) (P31749 whole entry): as the sequence (P31749 whole entry E17K) above, with K17E counted along it

IC50 (AKT1 E17K [1]; HEK293, 2 h at 37 C, Table 7) | IC50 (AKT1 WT [2]; HEK293, 2 h at 37 C, Table 7) | IC50 (AKT2; HEK293, 2 h at 37 C, Table 7) | AKT1 E17K t1/2 (AKT1 E17K [3]) | Off-rate Selectivity E17K/WT (AKT1 E17K [3]) | AKT1 (WT) t1/2 (AKT1 WT [4]) | covalent complex formation with AKT1 WT protein (AKT1 WT [5]) | AKT1 E17K t1/2 (AKT1 E17K [6]) | Off-rate Selectivity E17K/WT (AKT1 E17K [6]) | AKT1 (WT) t1/2 (AKT1 WT [7]) | AKT1 E17K IC50: Selectivity vs AKT1 WT (AKT1 E17K [1]) | AKT1 E17K IC50: Selectivity vs AKT2 (AKT1 E17K [1]) | IC50 (AKT1 E17K [1]; HEK293, 2 hours at 37° C.) | IC50 (AKT1 WT [2]; HEK293, 2 hours at 37° C.) | IC50 (AKT2; HEK293, 2 hours at 37° C.) | SMILES | covalent complex formation with AKT1 E17K mutant protein (AKT1 E17K mutant protein) | covalent complex formation with AKT1 E17K mutant protein in presence of competitor (AKT1 E17K mutant protein) | covalent complex formation with AKT1 WT protein in presence of competitor (AKT1 WT [5]) | other results
< 100 nM | 100 to 500 nM | > 500 nM | 1037 min | 14.7 | 72.7 min | – | – | – | – | – | – | – | – | – | C#Cc1cccc(-c2ccc3nc(-c4cccnc4N)n(-c4ccc(CNCCc5ccc(C=O)c(O)c5)cc4)c3n2)c1 [Compound B, 4-(2-((4-(2-(2-aminopyridin-3-yl)-5-(3-ethynylphenyl)-3H-imidazo[4,5-b]pyridin-3-yl)benzyl)amino)ethyl)-2-hydroxybenzaldehyde] | – | – | – | extent of binding to E17K AKT1 after washout (BEAS2B-AKT1(E17K); incubation 0.5 hr, 21 hour of washout compared to 1 hour): roughly equivalent to binding after 1 hour of washout; selectivity of binding, E17K AKT1 versus WT-AKT1 (BEAS2B-AKT1(E17K); washout experiment): binds with substantial selectively to K17 in E17K AKT1; extent of binding to WT-AKT1 after washout (BEAS2B-AKT1(WT)): markedly diminished
100 to 500 nM | < 100 nM | > 500 nM | 8.2 min | 1.6 | 5 min | – | – | – | – | – | – | – | – | – | C#Cc1cccc(-c2ccc3nc(-c4cccnc4N)n(-c4ccc(CNC(=O)c5ccc(C=O)c(O)c5)cc4)c3n2)c1 [Compound A, N-(4-(2-(2-aminopyridin-3-yl)-5-(3-ethynylphenyl)-3H-imidazo[4,5-b]pyridin-3-yl)benzyl)-4-formyl-3-hydroxybenzamide] | – | – | – | –
– | – | – | – | – | – | presence of a covalent complex | 111 min | 4.6 | 24.2 min | 2.5 | 22 | < 100 nM | < 100 nM | 100 to 500 nM | Nc1ncccc1-c1nc2ccc(-c3ccccc3)nc2n1-c1ccc(CNC(=O)Cc2ccc(C=O)c(O)c2F)cc1 [Compound 94, N-({4-[2-(2-aminopyridin-3-yl)-5-phenylimidazo[4,5-b]pyridin-3-yl]phenyl}methyl)-2-(2-fluoro-4-formyl-3-hydroxyphenyl)acetamide] | presence of a covalent complex | Essentially no covalent complex formation | Essentially no covalent complex formation | –

The remaining lines, values behind:

SMILES | IC50 (AKT1 E17K [1]; HEK293, 2 h at 37 C, Table 7) | IC50 (AKT1 WT [2]; HEK293, 2 h at 37 C, Table 7) | IC50 (AKT2; HEK293, 2 h at 37 C, Table 7) | AKT1 E17K t1/2 (AKT1 E17K [3]) | Off-rate Selectivity E17K/WT (AKT1 E17K [3]) | AKT1 (WT) t1/2 (AKT1 WT [4]) | covalent complex formation with AKT1 WT protein (AKT1 WT [5]) | AKT1 E17K t1/2 (AKT1 E17K [6]) | Off-rate Selectivity E17K/WT (AKT1 E17K [6]) | AKT1 (WT) t1/2 (AKT1 WT [7]) | AKT1 E17K IC50: Selectivity vs AKT1 WT (AKT1 E17K [1]) | AKT1 E17K IC50: Selectivity vs AKT2 (AKT1 E17K [1]) | IC50 (AKT1 E17K [1]; HEK293, 2 hours at 37° C.) | IC50 (AKT1 WT [2]; HEK293, 2 hours at 37° C.) | IC50 (AKT2; HEK293, 2 hours at 37° C.) | covalent complex formation with AKT1 E17K mutant protein (AKT1 E17K mutant protein) | covalent complex formation with AKT1 E17K mutant protein in presence of competitor (AKT1 E17K mutant protein) | covalent complex formation with AKT1 WT protein in presence of competitor (AKT1 WT [5]) | other results
Nc1ncccc1-c1nc2ccc(-c3cccc(N4CCOCC4)c3)nc2n1-c1ccc(CNC(=O)Cc2ccc(C=O)c(O)c2F)cc1 [Example 21, N-({4-[2-(2-aminopyridin-3-yl)-5-[3-(morpholin-4-yl)phenyl]imidazo[4,5-b]pyridin-3-yl]phenyl}methyl)-2-(2-fluoro-4-formyl-3-hydroxyphenyl)acetamide] | – | – | – | – | – | – | significant presence of a covalent complex | 68.2 min | 1.5 | 45.3 min | 1.5 | 4.8 | < 100 nM | < 100 nM | < 100 nM | significant presence of a covalent complex | Essentially no covalent complex formation | Essentially no covalent complex formation | –
Nc1ncccc1-c1nc2cccnc2n1-c1ccc(CNC(=O)Cc2ccc(C=O)c(O)c2)cc1 [Compound 96, N-(4-(2-(2-aminopyridin-3-yl)-3H-imidazo[4,5-b]pyridin-3-yl)benzyl)-2-(4-formyl-3-hydroxyphenyl)acetamide] | – | – | – | – | – | – | significant presence of covalent complex | 55.5 min | 5.2 | 10.7 min | 4.6 | 64 | < 100 nM | < 100 nM | > 500 nM | significant presence of a covalent complex | Essentially little to no covalent complex formation | Essentially no covalent complex formation | –
